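In this assay, cells in 96-well plates receive the compound at five concentrations for 48 hours. Endpoints are linearly interpolated between the surrounding concentrations. GI50 = concentration required for 50% inhibition of growth.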 Calls of active or inactive are those of the source. No stated cut-off is given here; in the data, active = GI50 up to about 1.1 µM and inactive = higher.
Legend:
Test in all cases: NCI tumour cell line growth inhibition, 48 h
NCI/ADR-RES = system: NCI/ADR-RES
MDA-N = system: MDA-N
SF-295 = system: SF-295
HCT-15 = system: HCT-15
Hs-578T = system: Hs-578T
TK-10 = system: TK-10
SNB-19 = system: SNB-19
786-0 = system: 786-0
OVCAR-8 = system: OVCAR-8
MCF7 = system: MCF7
NCI-H522 = system: NCI-H522
RXF 393 = system: RXF 393
RPMI-8226 = system: RPMI-8226
HCC 2998 = system: HCC 2998
UACC-257 = system: UACC-257
DU-145 = system: DU-145
K562 = system: K562
SF-268 = system: SF-268
HOP-62 = system: HOP-62

| SMILES | GI50 (NCI/ADR-RES) | GI50 (MDA-N) | GI50 (SF-295) | GI50 (HCT-15) | GI50 (Hs-578T) | GI50 (TK-10) | GI50 (SNB-19) | GI50 (786-0) | GI50 (OVCAR-8) | GI50 (MCF7) | GI50 (NCI-H522) | GI50 (RXF 393) | GI50 (RPMI-8226) | GI50 (HCC 2998) | GI50 (UACC-257) | GI50 (DU-145) | GI50 (K562) | GI50 (SF-268) | GI50 (HOP-62) |
| --- | --- | --- | --- | --- | --- | --- | --- | --- | --- | --- | --- | --- | --- | --- | --- | --- | --- | --- | --- |
| O=c1c2ncn(C3CC(O)C(CO)O3)c2nnn1Cc1ccccc1[N+](=O)[O-] (configuration not stated) | > 100 µM (inactive) | > 100 µM (inactive) | > 100 µM (inactive) | > 100 µM | > 100 µM (inactive) | > 100 µM (inactive) | > 100 µM (inactive) | > 100 µM (inactive) | > 100 µM (inactive) | > 100 µM (inactive) | > 100 µM (inactive) | 17.8 µM (inactive) | > 100 µM (inactive) | > 100 µM (inactive) | > 100 µM (inactive) | > 100 µM (inactive) | > 100 µM (inactive) | > 100 µM (inactive) | > 100 µM (inactive) |
| CCOC(=O)Cn1nc2ccc(Nc3nc4ccccc4nc3C(=O)OCC)cc2n1 | 54.6 µM (inactive) | > 100 µM (inactive) | 45.1 µM (inactive) | > 100 µM | 33.9 µM (inactive) | 38.4 µM (inactive) | 34 µM (inactive) | 33.4 µM (inactive) | 58.2 µM (inactive) | 76.4 µM (inactive) | 57 µM (inactive) | 23.6 µM (inactive) | > 100 µM (inactive) | 83 µM (inactive) | > 100 µM (inactive) | > 100 µM (inactive) | > 100 µM (inactive) | 47.4 µM (inactive) | 68.7 µM (inactive) |
| COc1ccc2[nH]cc(CN3CCC(CO)(c4ccccc4)CC3)c2c1 | > 100 µM (inactive) | 18.7 µM (inactive) | 16.1 µM (inactive) | 35.1 µM | 25.7 µM (inactive) | 95.9 µM (inactive) | > 100 µM (inactive) | 15.3 µM (inactive) | 52.7 µM (inactive) | 20.8 µM (inactive) | 18.9 µM (inactive) | 71.4 µM (inactive) | 22.6 µM (inactive) | 21 µM (inactive) | 17.5 µM (inactive) | 45.2 µM (inactive) | 17.6 µM (inactive) | 11.9 µM (inactive) | 19.7 µM (inactive) |
| O=C(CCCN1CCC(Nc2ccccc2)(c2nnnn2C2CCCCC2)CC1)c1ccc(F)cc1 | 21 µM (inactive) | 5.28 µM (inactive) | 14.5 µM (inactive) | 8.28 µM | 10.3 µM (inactive) | 12.9 µM (inactive) | 9.64 µM (inactive) | 3.89 µM (inactive) | 13.1 µM (inactive) | 2.28 µM (inactive) | 6.55 µM (inactive) | 9.64 µM (inactive) | 3.48 µM (inactive) | 3.29 µM (inactive) | 2.52 µM (inactive) | 3.81 µM (inactive) | 13 µM (inactive) | 2.4 µM (inactive) | 6.17 µM (inactive) |
| Cc1nn(-c2ccccn2)c2c1C(SC#N)=C(C=O)CC2 | 20.1 µM (inactive) | 17.7 µM (inactive) | 30.3 µM (inactive) | 17.4 µM | 33.7 µM (inactive) | 1.67 µM (inactive) | 19.6 µM (inactive) | 12.4 µM (inactive) | 15.9 µM (inactive) | 10.5 µM (inactive) | 19.5 µM (inactive) | 5.16 µM (inactive) | 13.3 µM (inactive) | 11.9 µM (inactive) | 5.12 µM (inactive) | 14.9 µM (inactive) | 8.07 µM (inactive) | 16.5 µM (inactive) | 9.38 µM (inactive) |
| Cn1c(=O)c2[nH]c(N/N=C3/SCC(=O)N3Cc3ccccc3)nc2n(C)c1=O | > 100 µM (inactive) | 16.4 µM (inactive) | 21.2 µM (inactive) | > 100 µM | 17.1 µM (inactive) | > 100 µM (inactive) | > 100 µM (inactive) | 27 µM (inactive) | > 100 µM (inactive) | 19.4 µM (inactive) | 50.8 µM (inactive) | > 100 µM (inactive) | 42.4 µM (inactive) | > 100 µM (inactive) | > 100 µM (inactive) | 65.6 µM (inactive) | 30.5 µM (inactive) | 33.3 µM (inactive) | > 100 µM (inactive) |
| CC(C)C(C/C=C1\CC(CO)(COC(=O)C2CCCCC2)OC1=O)C(C)C (configuration not stated) | 20.7 µM (inactive) | 24.1 µM (inactive) | 16.3 µM (inactive) | 21.7 µM | 13.2 µM (inactive) | 21 µM (inactive) | 16.3 µM (inactive) | 13.7 µM (inactive) | 18.7 µM (inactive) | 21.2 µM (inactive) | 16.5 µM (inactive) | 19.1 µM (inactive) |  | 27.9 µM (inactive) | 32.2 µM (inactive) | 12.3 µM (inactive) | 6.25 µM (inactive) | 17.7 µM (inactive) | 13.2 µM (inactive) |

— ChEMBL document CHEMBL1201862, “PubChem BioAssay data set” (2004)
